Patent US10982188B2, “Synthetic retina” (University of Newcastle Upon Tyne, priority 2014, dated 2021)

Tests used:
[1] = tested on: hESC and hiPSC derived photoreceptors; test: Calcium imaging (Fura-2) of cGMP response; format: cell-based, human; details: for effect on cGMP-mediated increase in Ca2+ influx: cobalt chloride and magnesium chloride together in the perfusate with cGMP
Excerpt: In order to determine whether developing photoreceptors contained the machinery necessary for transduction, the inventors plated differentiating EBs onto poly-L-ornithine and laminin-coated 6 well plates for 15 days prior to optical recording using calcium imaging. Membrane disks in the outer segment of native photoreceptors contain a photopigment (for example the rod-specific pigment rhodopsin consists of opsin+retinal), and the cell membrane in outer segments contains cyclic guanosine monophosphate (cGMP)-gated cationic (sodium and calcium) channels. In the dark, cGMP levels are high and the photoreceptors are maintained in a depolarised state via influx of Na^+ and Ca^2+ through these cGMP-gated channels which are in an open state. Exposure to light causes the retinal part of the photopigment to isomerise to trans-retinal, leading to activation of multiple G-proteins and phosphodiesterase 6 which in turns degrades cGMP, resulting in closure of the channels and membrane hyperpolarisation. To test if the hESC and hiPSC derived photoreceptors respond in a similar manner, on day 30, 45 and 60 of differentiation, cells were exposed to flashes of red, green, blue or white light, or to membrane-permeable 8-br-cGMP. As 8-br-cGMP opens the cationic (Na^+ and Ca^2+) channel associated with phototransduction, it triggers a Ca^2+ influx in photoreceptors known as the inward dark current. Loading cells with the fluorescent Ca^2+ indicator Fura-2 therefore enables the visualisation of changes in intracellular calcium associated with opening or closing of the cGMP-gated channel, with a decrease in fluorescence representing an increase in calcium influx.
EBs were dark adapted for 24 hours prior to recording then loaded with Fura-2 AM (10 μM, Molecular probes/Invitrogen) for 45 min at 37° C. (95% O2/5% CO2) followed by perfusion (1 ml/minute) with oxygenated artificial Cerebrospinal Fluid (aCSF; 118 mM NaCl, 25 mM NaHCO3, 1 mM NaH2PO4, 3 mM KCl, 1 mM MgCl2, 2 mM CaCl2, 10 mM glucose) for one hour. Cells were exposed to 8-br-cGMP (cGMP, 1 mM, Sigma) in aCSF. Control recordings were performed with aCSF alone or with 8-br-cGMP in CaCl2-free aCSF supplemented with calcium channel blocker Cobalt (II) chloride (CoCl2, 4 mM, AnalaR) and 10 mM HEPES. Fluorescence was monitored using an inverted Olympus IX71 microscope and images (excitation 380 nm, 800 ms exposure) acquired using a Quantem 512SC camera (Photometrics) and MetaMorph Software (Molecular Devices). For each stimulation 20 seconds baseline activity was recorded. Fluorescence change was analysed using the formula % Δl/lo=(l1−lo)×100/lo, where lo was the average cellular fluorescence during baseline activity and l1 following stimulation. Significance was determined using a student's t-test (P<0.01).

[2] = molecular target: T1, IGF-IR (Homo sapiens, UniProt P08069); test: IGF-1 receptor signalling interference: optic vesicle/optic cup formation and survival of EBs; format: cell-based; details: for optic vesicle production from differentiating EBs: 7 μM
T1 construct: endogenous in cells; host or cells: hESC (line H9, WiCell)-derived embryoid bodies
Experimental: To confirm the contribution of the IGF-1 signalling pathway in this process, the inventors differentiated cells in the presence of a pharmacological inhibitor of the IGF-IR (pi(IR)) or a neutralising antibody directed against the IGF-II receptor, IGF-IIR ((n)IIR), in the presence (+) or absence (−) of IGF-1 supplementation (FIG. 5I, J).
hESCs were expanded and differentiated as described. For interference of IGF-1 receptor signalling an IGF-IR-specific pharmacological inhibitor ([7 μM], AG1024, Stratech) was added to differentiation media for the entire differentiation period. To block/neutralise IGF-II receptor signalling, media was supplemented with goat IgG anti-human IGF-IIR antibody ([0.25 μg/ml], AF2447, R&D) throughout differentiation.

[3] = tested on: human pluripotent stem cells; test: Modified differentiation media, mTeSR1 feeder-free adapted cells: optic cup formation; format: cell-based; details: 2 and 3 fold increase in IGF-1 concentration, FIG. 15
Experimental: Human pluripotent stem cells were grown under feeder free conditions the effect of freeder free conditions on their differentiation potential to synthetic retina investigated.
mTeSR1 media (Stem Cell Technologies) is a highly specialised serum-free and complete media designed for feeder-free culture. Cells to this feeder-free technique and subjected to differentiation studies using the IGF-1 factor as discussed above.

[4] = tested on: differentiating hESCs; test: Optic vesicle and optic cup formation from EBs differentiated in 3D with IGF-1; format: cell-based, human
Experimental: hESC (line H9, WiCell) and hiPSC lines Clone 4^25 and NHDF^26 were expanded and differentiated as previously described.^14 For IGF-1 treatment, cultures were differentiated in VNIM media^14 supplemented with recombinant human IGF-1 (5 ng/ml, Sigma) until day 37, then in basal Knockout serum-free media^14 with 10 ng/ml IGF-1 until day 90 (FIG. 1A). Control cultures were differentiated in parallel in the absence of IGF-1. Time-lapse capture of culture morphology was achieved using a BioStation CT (Nikon).

T1 sequence (P08069 31-1367): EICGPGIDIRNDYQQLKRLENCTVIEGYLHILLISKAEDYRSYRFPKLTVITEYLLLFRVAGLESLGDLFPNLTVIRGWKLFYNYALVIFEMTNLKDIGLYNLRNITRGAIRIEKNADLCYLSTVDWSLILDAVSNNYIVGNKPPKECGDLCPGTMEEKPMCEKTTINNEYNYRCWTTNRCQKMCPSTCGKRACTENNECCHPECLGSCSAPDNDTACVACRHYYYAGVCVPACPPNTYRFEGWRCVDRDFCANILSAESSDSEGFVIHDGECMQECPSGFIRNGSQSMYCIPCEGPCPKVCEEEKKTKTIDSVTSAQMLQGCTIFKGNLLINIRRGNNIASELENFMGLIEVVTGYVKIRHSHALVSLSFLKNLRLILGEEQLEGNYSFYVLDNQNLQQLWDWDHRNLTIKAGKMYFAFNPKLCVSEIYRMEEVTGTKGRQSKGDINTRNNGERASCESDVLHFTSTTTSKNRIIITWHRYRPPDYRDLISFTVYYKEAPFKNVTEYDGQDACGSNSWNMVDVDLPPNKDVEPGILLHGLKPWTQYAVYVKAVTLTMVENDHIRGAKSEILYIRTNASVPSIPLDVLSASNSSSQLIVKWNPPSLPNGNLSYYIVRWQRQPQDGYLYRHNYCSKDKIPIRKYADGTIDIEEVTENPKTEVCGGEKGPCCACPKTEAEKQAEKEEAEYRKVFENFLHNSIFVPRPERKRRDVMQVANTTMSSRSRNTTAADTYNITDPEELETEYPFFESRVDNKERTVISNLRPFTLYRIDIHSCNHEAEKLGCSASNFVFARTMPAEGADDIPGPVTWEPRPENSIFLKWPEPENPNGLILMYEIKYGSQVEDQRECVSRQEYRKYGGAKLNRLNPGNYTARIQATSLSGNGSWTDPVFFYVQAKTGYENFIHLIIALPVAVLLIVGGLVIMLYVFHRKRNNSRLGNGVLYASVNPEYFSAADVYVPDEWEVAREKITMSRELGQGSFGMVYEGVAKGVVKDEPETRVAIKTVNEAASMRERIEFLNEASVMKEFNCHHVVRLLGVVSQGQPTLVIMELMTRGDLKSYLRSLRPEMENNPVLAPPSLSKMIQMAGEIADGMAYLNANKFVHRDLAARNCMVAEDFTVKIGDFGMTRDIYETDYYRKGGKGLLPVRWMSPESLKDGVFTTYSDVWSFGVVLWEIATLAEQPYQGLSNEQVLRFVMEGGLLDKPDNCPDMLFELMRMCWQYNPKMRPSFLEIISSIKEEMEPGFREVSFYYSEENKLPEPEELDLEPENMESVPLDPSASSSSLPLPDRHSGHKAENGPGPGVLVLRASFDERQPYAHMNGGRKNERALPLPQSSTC

Compound: Nc1nc2c(nc(Br)n2[C@@H]2O[C@@H]3COP(=O)(O)O[C@H]3[C@H]2O)c(=O)[nH]1 [8-br-cGMP]
- Fura-2 fluorescence change (Ca2+ influx) ([1]; IGF-1 treated cultures, 1 mM in aCSF): decreased fluorescence

Compound: CC(C)(C)c1cc(C=C(C#N)C#N)cc(Br)c1O [(pi)IR]
- viability of cultures ([2]; after day 45, with and without exogenous IGF-1): did not remain viable
- optic cups ([2]; day 45): undetectable
- optic vesicle production from differentiating EBs ([2]; day 45, absence of IGF-1 ((pi)IR-), p=0.021): significantly reduced
- optic vesicle production from differentiating EBs ([2]; day 45, presence of IGF-1 ((pi)IR+), p=0.023): significantly reduced
- survival of EBs ([2]; days of differentiation, with and without IGF-1): ≤ 50 days

Compound: [Cl-].[Cl-].[Co+2] [cobalt chloride, Cobalt (II) chloride]
- effect on cGMP-mediated increase in Ca2+ influx [1]: abolished

Compound: [Cl-].[Cl-].[Mg+2] [magnesium chloride]
- effect on cGMP-mediated increase in Ca2+ influx [1]: abolished

Compound: IGF-1: recombinant human IGF-1 (Sigma), single-chain 70-amino-acid protein, SEQ ID NO:1
- cGMP respondent cultures ([1]; by day 90, 8-br-cGMP stimulation): 45.3%
- cGMP respondent cultures ([1]; day 45 of differentiation, 8-br-cGMP stimulation): 24.1%
- formation of optic cups on increasing concentration [3]: did not cause any significant changes
- frequency of optic vesicle formation ([4]; IGF-1 in differentiation media vs control, FIG. 5I): significantly increased
- optic vesicle formation relative to control levels ([4]; by day 15): double
- increase in optic vesicle and optic cup formation vs control ([4]; by day 60): 4 fold
- EBs with optic cup formation ([4]; day 60, FIG. 5J, control 3.9%): 17.4%
